Measurements: patent publication US20230357179A1, “RAF KINASE INHIBITORS AND METHODS OF USE THEREOF” (Deciphera Pharmaceuticals, LLC, priority 2021, published 2023)

What follows are compounds tested on WM3629 cells (assay: WM3629 cell proliferation assay (1), resazurin, 96-well). Conditions: inhibition of cell proliferation.
Assay type: cell-based
Experimental: WM3629 Cell Proliferation Assay (1)
WM3629 cells (#WM3629-01-0001) are obtained from Rockland Immunochemicals Inc (Gilbertsville, PA). Briefly, cells were grown in MCDB 153 medium (Sigma, #M7403, St. Louis, MO) supplemented with 20% Leibovitz's L-15 (ThermoFisher #11415-064, Waltham, MA), 2% heat inactivated fetal bovine serum (ThermoFisher, #A3840001, Waltham, MA), 5 μg/mL Insulin (Bovine Pancreas) (Sigma, #I0516, St. Louis, MO), 1.68 mM Calcium Chloride (Sigma, #C-34006, St. Louis, MO) and 1% Penicillin/Streptomycin/L-Glutamine (ThermoFisher #10378016, Waltham, MA) at 37° C., 5% CO2, and 95% humidity. Cells are expanded until reaching 70-95% confluency at which point they are subcultured or harvested for assay use. A serial dilution of test compound is dispensed into a 96-well black clear bottom plate in triplicate. Four thousand five hundred cells are added per well in 200 μL complete growth medium in the 96-well plate. Plates are incubated for 67-72 hours at 37° C., 5% CO2, and 95% humidity. At the end of the incubation, 40 μL of a 440 μM solution of resazurin (Sigma, #199303, St. Louis, MO) in PBS is added to each well of the plate and plates are incubated for an additional 6-7 hours at 37° C., 5% CO2, and 95% humidity. Plates are read on a Synergy2 or equivalent reader (Biotek, Winooski VT) using an excitation of 540 nm and an emission of 600 nm. Data is analyzed using Prism software (GraphPad, San Diego, CA) to calculate IC50 values.

Row | Structure (SMILES) | IC50 [µM]
1 | Cc1ncc(NC(=O)NCCC2(C)CC2)cc1-c1ccnc(-c2ccnc(NC(=O)C3CC3)c2)n1 [Example 107] | ≤ 0.1
2 | COC(=O)Nc1cc(-c2cc(-c3cc(NC(=O)NCCC(C)C)c(F)cc3C)cc(OCCO)n2)ccn1 [Example 115] | ≤ 0.1
3 | CNC(=O)c1cc(-c2cnnc(-c3cc(NC(=O)NCCC(C)(C)C)c(F)cc3C)c2)ccn1 [Example 119] | 0.1 to 0.5
4 | COC(=O)Nc1cc(-c2cc(-c3cc(NC(=O)NC4CC(C)(C)C4)cnc3C)cc(OCCO)n2)ccn1 [Example 156] | ≤ 0.1

What follows are compounds tested on Miapaca-2 cells (assay: MiaPaca-2 combination cell proliferation assay (1) with cobimetinib, 96-well). Conditions: inhibition of cell proliferation, read-out: MiaPaca-2 Combo (1) IC50.
Assay type: cell-based
Experimental: MiaPaca-2 Combination Cell proliferation Assay (1)
Miapaca-2 cells (catalog #CRL-1420) are obtained from the American Type Culture Collect (ATCC, Manassas, VA). Briefly, cells were grown in DMEM supplemented with 10% characterized fetal bovine serum (Invitrogen, Carlsbad, CA), 2.5% New Zealand sourced horse serum and 1% Penicillin/Streptomycin/L-Glutamine at 37° C., 5% CO2, and 95% humidity. Cells are expanded until reaching 70-95% confluency at which point they are subcultured or harvested for assay use. A serial dilution of test compound was dispensed into multiple 96-well black clear bottom plates in triplicate. A serial dilution of complete growth medium containing cobimetinib was prepared at twice the final concentration and 100 μL was dispensed across the test compound titration in triplicate. Three thousand cells are added per well in 100 μL complete growth medium in each 96-well plate. Plates are incubated for 67-72 hours at 37° C., 5% CO2, and 95% humidity. At the end of the incubation, 40 μL of a 440 μM solution of resazurin (Sigma, St. Louis, MO) in PBS is added to each well of the plate and plates are incubated for an additional 5-7 hours at 37° C., 5% CO2, and 95% humidity. Plates are read on a Synergy2 or equivalent reader (Biotek, Winooski VT) using an excitation of 540 nm and an emission of 600 nm. Drug synergy was assessed via BLISS analysis in the Combenefit software (Cancer Research UK Cambridge Institute, Cambridge, UK). Data is analyzed using Prism software (GraphPad, San Diego, CA) to calculate IC50 values. Shifts in test compound IC50 values are reported from top-constrained combination therapy curves.

Row | Structure (SMILES) | IC50 [µM]
5 | Cc1ccc(NC(=O)Nc2cccc(C(F)(F)F)c2)cc1-c1cc(OCCO)nc(N2CCOCC2)c1 [Example 3, 1-(3-(2-(2-hydroxyethoxy)-6-morpholinopyridin-4-yl)-4-methylphenyl)-3-(3-(trifluoromethyl)phenyl)urea] | ≤ 0.1
6 | Cc1cc(F)c(NC(=O)NCCC(C)(C)C)cc1-c1cc(OCCO)nc(C2=CCOCC2)c1 [Example 7] | ≤ 0.1
7 | Cc1ncc(NC(=O)NCCC2(C)CC2)cc1-c1cc(OCCO)nc(-c2ccnc(NC(=O)C3CC3)c2)c1 [Example 113] | ≤ 0.1
